Experiments:
[1] = biological target: C-RAF (Homo sapiens (Human), UniProt P04049); test: Test of small molecule compounds for inhibiting the activity of C-RAF kinase (ADP-Glo)
Protocol: (§1) Test of Small Molecule Compounds for Inhibiting the Activity of C-RAF and B-RAF Kinases
(§2) 1. Preparation of test compounds: according to the molecular weight of the compounds, an appropriate volume of DMSO was directly added to dissolve the test compounds. For storing the compound, the concentration of DMSO is 100%, and the final concentration of DMSO in the experimental system is 1%.
(§3) Enzyme: B-RAF: 0.1 ng/l (the final concentration in the reaction system); C-RAF: 0.1 ng/μl (the final concentration in the reaction system)
(§4) HPE: the reaction without enzyme (1% DMSO)
(§5) ZPE: the reaction with enzyme but without compound (1% DMSO)
(§6) a) 1 ul of 10-fold diluted compound or 10% DMSO was added to a 384-well assay plate,
(§7) b) 4 ul enzyme solution or assay buffer was added to the wells of the assay plate,
(§8) c) the plate was centrifuged at 1000 rpm for 1 minute to homogeneous,
(§9) d) 5 ul of ATP-substrate mixture was added to the wells of the assay plate,
(§10) e) the plate was shaked for mixing for 2 minutes,
(§11) f) the plate was incubated at 30° C. for 1 hour,
(§12) g) 10 ul of ADP-Glo reagent was added to the wells of the assay plate, and the plate was incubated for 40 minutes at 27° C.,
(§13) h) 20 ul of kinase assay solution was added to the wells of the plate, and the plate was incubated for 30 minutes at 27° C.,
(§14) i) the chemiluminescent signal was read with Envision.
(§15) The IC50 values of the positive control compound and the test compounds were calculated using the Prism software according to the variable slope of the curve.

[2] = biological target: VEGFR-2 kinase (Homo sapiens (Human), UniProt P35968); test: Test of small molecule compounds for inhibiting the activity of VEGFR-2 kinase; format: biochemical; conditions: class symbols A-D
Protocol: Test of Small Molecule Compounds for Inhibiting the Activity of VEGFR-2 Kinase
The test was carried out as follows:
2. 2.5 μl of the gradient-diluted compounds was taken with a transfer pipette to a 384-well plate,
3. Addition of enzyme: 5 μl of 2×VEGFR-2 kinase was taken with a transfer pipette to the corresponding reaction well of the 384-well plate, which was mixed and pre-reacted at room temperature for 30 min,
5. Negative control: 2.5 μl/well 4× substrate/ATP Mix and 7.5 μl 1× Kinase Assay Buffer were added to the wells of the 384-well plate,
Positive control: 2.5 μl/well 4× substrate/ATP Mix, 2.5 μl/well 1× Kinase Assay Buffer containing 4% DMSO, and 5 μl/well 2×VEGFR-2 solution were added to the 384-well plate. The final concentration of DMSO in the reaction system is […],
6. The mixture was mixed well and then centrifuged and reacted at room temperature in dark for 60 min,
9. The 384-well plate was placed into the Envision plate reader and the signal was detected using the appropriate program,

[3] = biological target: B-RAF (Homo sapiens (Human), UniProt P15056); test: Test of small molecule compounds for inhibiting the activity of B-RAF kinase (ADP-Glo)
B-RAF, sequence (P15056 whole entry): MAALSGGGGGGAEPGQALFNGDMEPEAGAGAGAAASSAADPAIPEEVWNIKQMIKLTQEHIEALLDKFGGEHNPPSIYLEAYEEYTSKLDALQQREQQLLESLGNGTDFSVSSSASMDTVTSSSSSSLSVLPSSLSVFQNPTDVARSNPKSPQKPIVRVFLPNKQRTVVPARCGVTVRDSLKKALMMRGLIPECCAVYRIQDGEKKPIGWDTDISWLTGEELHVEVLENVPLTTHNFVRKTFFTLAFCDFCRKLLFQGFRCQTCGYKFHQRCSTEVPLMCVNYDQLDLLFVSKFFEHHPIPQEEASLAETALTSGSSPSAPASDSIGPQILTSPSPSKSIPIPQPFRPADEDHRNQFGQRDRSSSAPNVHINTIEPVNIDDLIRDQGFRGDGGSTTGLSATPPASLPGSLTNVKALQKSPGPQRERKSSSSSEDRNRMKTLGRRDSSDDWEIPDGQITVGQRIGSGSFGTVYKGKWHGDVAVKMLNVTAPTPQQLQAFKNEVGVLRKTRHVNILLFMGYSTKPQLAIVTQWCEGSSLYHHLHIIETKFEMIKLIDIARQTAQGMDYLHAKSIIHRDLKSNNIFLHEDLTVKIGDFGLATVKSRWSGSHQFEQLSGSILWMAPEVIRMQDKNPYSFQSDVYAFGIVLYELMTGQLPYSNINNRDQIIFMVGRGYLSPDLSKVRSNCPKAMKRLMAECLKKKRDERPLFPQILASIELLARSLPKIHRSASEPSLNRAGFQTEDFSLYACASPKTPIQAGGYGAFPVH
Protocol: as §1, §2, §3, §4, §5, §6, §7, §8, §9, §10, §11, §12, §13, §14, §15

C-RAF, sequence (P04049 whole entry): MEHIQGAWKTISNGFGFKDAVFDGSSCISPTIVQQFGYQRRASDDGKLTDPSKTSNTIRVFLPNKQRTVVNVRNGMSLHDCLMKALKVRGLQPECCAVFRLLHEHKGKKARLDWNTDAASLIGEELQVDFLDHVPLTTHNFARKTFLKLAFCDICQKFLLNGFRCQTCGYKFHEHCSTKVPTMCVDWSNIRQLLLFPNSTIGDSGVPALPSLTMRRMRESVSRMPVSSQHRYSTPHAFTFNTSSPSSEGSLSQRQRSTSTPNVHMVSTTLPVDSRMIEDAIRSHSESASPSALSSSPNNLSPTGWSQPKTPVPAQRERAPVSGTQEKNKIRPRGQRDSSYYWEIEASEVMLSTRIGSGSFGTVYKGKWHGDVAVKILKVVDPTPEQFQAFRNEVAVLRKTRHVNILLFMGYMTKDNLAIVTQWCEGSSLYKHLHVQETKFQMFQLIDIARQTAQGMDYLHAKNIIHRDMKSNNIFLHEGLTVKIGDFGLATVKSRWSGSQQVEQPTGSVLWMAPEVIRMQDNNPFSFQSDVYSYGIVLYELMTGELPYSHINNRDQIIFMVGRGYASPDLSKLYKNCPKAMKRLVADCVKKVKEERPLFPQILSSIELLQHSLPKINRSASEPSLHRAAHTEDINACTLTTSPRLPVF
VEGFR-2 kinase, sequence (P35968 20-1356): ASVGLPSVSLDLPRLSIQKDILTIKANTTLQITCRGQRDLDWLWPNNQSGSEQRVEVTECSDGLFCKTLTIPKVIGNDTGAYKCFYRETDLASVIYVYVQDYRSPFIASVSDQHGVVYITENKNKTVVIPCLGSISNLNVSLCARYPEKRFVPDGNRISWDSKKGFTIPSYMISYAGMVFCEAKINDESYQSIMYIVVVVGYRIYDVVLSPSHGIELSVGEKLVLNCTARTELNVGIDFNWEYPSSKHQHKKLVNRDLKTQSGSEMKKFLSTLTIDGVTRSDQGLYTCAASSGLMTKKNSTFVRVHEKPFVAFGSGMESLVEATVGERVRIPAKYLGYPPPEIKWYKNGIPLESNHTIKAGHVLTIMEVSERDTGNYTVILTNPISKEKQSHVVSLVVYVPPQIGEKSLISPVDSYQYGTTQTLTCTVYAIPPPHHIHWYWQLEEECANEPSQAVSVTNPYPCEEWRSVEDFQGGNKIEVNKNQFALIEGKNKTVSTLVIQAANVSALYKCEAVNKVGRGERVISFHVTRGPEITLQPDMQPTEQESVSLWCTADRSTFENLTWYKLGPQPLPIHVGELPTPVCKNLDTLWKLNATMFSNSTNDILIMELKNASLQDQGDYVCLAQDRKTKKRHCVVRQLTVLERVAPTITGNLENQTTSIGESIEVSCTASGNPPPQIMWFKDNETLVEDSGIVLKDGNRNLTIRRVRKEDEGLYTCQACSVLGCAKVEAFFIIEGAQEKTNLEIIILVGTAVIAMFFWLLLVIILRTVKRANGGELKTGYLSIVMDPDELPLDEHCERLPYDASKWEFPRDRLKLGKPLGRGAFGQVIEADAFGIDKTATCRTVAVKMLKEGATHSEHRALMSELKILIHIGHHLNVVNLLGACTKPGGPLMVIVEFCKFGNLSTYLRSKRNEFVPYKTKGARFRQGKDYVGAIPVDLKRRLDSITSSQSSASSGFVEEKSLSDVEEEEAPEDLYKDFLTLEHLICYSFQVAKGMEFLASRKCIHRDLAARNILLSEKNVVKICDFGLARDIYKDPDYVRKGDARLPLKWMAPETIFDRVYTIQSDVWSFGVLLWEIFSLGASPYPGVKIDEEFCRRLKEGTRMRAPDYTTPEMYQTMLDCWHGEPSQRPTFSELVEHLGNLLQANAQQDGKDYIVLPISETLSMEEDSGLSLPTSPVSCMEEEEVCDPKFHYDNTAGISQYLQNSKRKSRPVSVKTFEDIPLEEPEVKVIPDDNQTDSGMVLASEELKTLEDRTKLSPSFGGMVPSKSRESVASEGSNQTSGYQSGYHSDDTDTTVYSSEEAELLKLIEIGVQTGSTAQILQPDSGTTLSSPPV

Row | Compound | IC50 [1] | IC50 [2] | IC50 [3]
1 | O=C(Nc1ccc(Oc2ncnc3cc(OCCCN4CCOCC4)c4c(c23)OCCO4)c(F)c1)Nc1cc(C(F)(F)F)ccc1F [Example 67, 1-(3-fluoro-4-((5-(3-morpholinopropoxy)-2,3-dihydro-[1,4]dioxino[2,3-f]quinazolin-10-yl)oxy)phenyl)-3-(2-fluoro-5-(trifluoromethyl)phenyl)urea] | 500 to 1000 nM | < 50 nM | 200 to 500 nM
2 | O=C(Nc1ccc(Oc2ncnc3cc(OCCCN4CCCC4)c4c(c23)OCCO4)cc1Cl)NC1CC1 [Example 62, 1-(2-chloro-4-((5-(3-(pyrrolidin-1-yl)propoxy)-2,3-dihydro-[1,4]dioxino[2,3-f]quinazolin-10-yl)oxy)phenyl)-3-cyclopropylurea] | > 1000 nM | < 50 nM | > 1000 nM
3 | O=C(Nc1ccc(Oc2ncnc3cc(OCCCN4CCOCC4)c4c(c23)OCCO4)c(F)c1)Nc1ccc(Cl)c(C(F)(F)F)c1 [Example 68, 1-(4-chloro-3-(trifluoromethyl)phenyl)-3-(3-fluoro-4-((5-(3-morpholinopropoxy)-2,3-dihydro-[1,4]dioxino[2,3-f]quinazolin-10-yl)oxy)phenyl)urea] | 500 to 1000 nM | < 50 nM | 200 to 500 nM
4 | COc1cc2ncnc(Nc3ccc(NC(=O)Nc4ccc(Cl)c(C(F)(F)F)c4)c(Cl)c3)c2c2c1OCCO2 [Example 11, 1-(2-chloro-4-((5-methoxy-2,3-dihydro-[1,4]dioxino[2,3-f]quinazolin-10-yl)amino)phenyl)-3-(4-chloro-3-(trifluoromethyl)phenyl)urea] | […] | < 50 nM | […]
5 | COc1cc2ncnc(Nc3ccc(NC(=O)Nc4cccc(S(C)(=O)=O)c4)c(Cl)c3)c2c2c1OCCO2 [Example 17, 1-(2-chloro-4-((5-methoxy-2,3-dihydro-[1,4]dioxino[2,3-f]quinazolin-10-yl)amino)phenyl)-3-(3-methylsulfonylphenyl)urea] | > 1000 nM | < 50 nM | > 1000 nM
6 | O=C(Nc1ccc(Oc2ncnc3cc(OCCCN4CCOCC4)c4c(c23)OCCO4)cc1)Nc1cc(C(F)(F)F)ccc1F [Example 65, 1-(2-fluoro-5-(trifluoromethyl)phenyl)-3-(4-((5-(3-morpholinopropoxy)-2,3-dihydro-[1,4]dioxino[2,3-f]quinazolin-10-yl)oxy)phenyl)urea] | […] | < 50 nM | […]
7 | O=C(Nc1ccc(Oc2ncnc3cc(OCCCN4CCOCC4)c4c(c23)OCCO4)cc1)Nc1ccc(Cl)c(C(F)(F)F)c1 [Example 66, 1-(4-chloro-3-(trifluoromethyl)phenyl)-3-(4-((5-(3-morpholinopropoxy)-2,3-dihydro-[1,4]dioxino[2,3-f]quinazolin-10-yl)oxy)phenyl)urea] | 200 to 500 nM | < 50 nM | 200 to 500 nM
8 | COCCOc1cc2ncnc(Oc3ccc(NC(=O)Nc4cccc(OC)c4)cc3)c2c2c1OCCO2 [Example 50, 1-(4-((5-(2-methoxyethoxy)-2,3-dihydro-[1,4]dioxino[2,3-f]quinazolin-10-yl)oxy)phenyl)-3-(3-methoxyphenyl)urea] | > 1000 nM | < 50 nM | > 1000 nM
9 | COCCOc1cc2ncnc(Oc3ccc(NC(=O)Nc4ccc(F)cc4F)c(F)c3)c2c2c1OCCO2 [Example 49, 1-(2,4-difluorophenyl)-3-(2-fluoro-4-((5-(2-methoxyethoxy)-2,3-dihydro-[1,4]dioxino[2,3-f]quinazolin-10-yl)oxy)phenyl)urea] | > 1000 nM | < 50 nM | > 1000 nM
10 | COCCOc1cc2ncnc(Nc3ccc(NC(=O)Nc4ccc(Cl)c(C(F)(F)F)c4)c(Cl)c3)c2c2c1OCCO2 [Example 42, 1-(2-chloro-4-((5-(2-methoxyethoxy)-2,3-dihydro-[1,4]dioxino[2,3-f]quinazolin-10-yl)amino)phenyl)-3-(4-chloro-3-(trifluoromethyl)phenyl)urea] | 500 to 1000 nM | < 50 nM | < 200 nM
11 | COCCOc1cc2ncnc(Oc3ccc(NC(=O)NC4CC4)c(Cl)c3)c2c2c1OCCO2 [Example 45, 1-(2-chloro-4-((5-(2-methoxyethoxy)-2,3-dihydro-[1,4]dioxino[2,3-f]quinazolin-10-yl)oxy)phenyl)-3-cyclopropylurea] | > 1000 nM | < 50 nM | > 1000 nM
12 | COc1cc2ncnc(Oc3ccc(NC(=O)Nc4ccc(Cl)c(C(F)(F)F)c4)c(F)c3)c2c2c1OCCO2 [Example 19, 1-(4-chloro-3-(trifluoromethyl)phenyl)-3-(2-fluoro-4-((5-methoxy-2,3-dihydro-[1,4]dioxino[2,3-f]quinazolin-10-yl)oxy)phenyl)urea] | < 200 nM | < 50 nM | < 200 nM
13 | COCCOc1cc2nccc(Oc3ccc(NC(=O)Nc4ccc(Cl)c(C(F)(F)F)c4)cc3F)c2c2c1OCCO2 [Example 94, 1-(4-chloro-3-(trifluoromethyl)phenyl)-3-(3-fluoro-4-((5-(2-methoxyethoxy)-2,3-dihydro-[1,4]dioxino[2,3-f]quinoline-10-yl)oxy)phenyl)urea] | – | 50 to 500 nM | –
14 | O=C(Nc1ccc(Oc2ncnc3cc(OCCCN4CCOCC4)c4c(c23)OCCO4)cc1)Nc1ccc(F)c(Cl)c1 [Example 74, 1-(3-chloro-4-fluorophenyl)-3-(4-((5-(3-morpholinopropoxy)-2,3-dihydro-[1,4]dioxino[2,3-f]quinazolin-10-yl)oxy)phenyl)urea] | – | < 50 nM | –
15 | COCCOc1cc2ncnc(Nc3ccc(NC(=O)NC(C)C)c(Cl)c3)c2c2c1OCCO2 [Example 40, 1-(2-chloro-4-((5-(2-methoxyethoxy)-2,3-dihydro-[1,4]dioxino[2,3-f]quinazolin-10-yl)amino)phenyl)-3-isopropylurea] | – | 50 to 500 nM | –
16 | COCCOc1cc2ncnc(Nc3ccc(NC(=O)Nc4ccnc(OC)c4)c(Cl)c3)c2c2c1OCCO2 [Example 41, 1-(2-chloro-4-((5-(2-methoxyethoxy)-2,3-dihydro-[1,4]dioxino[2,3-f]quinazolin-10-yl)amino)phenyl)-3-(2-methoxypyridin-4-yl)urea] | – | < 50 nM | –
17 | COc1cc2ncnc(Oc3ccc(NC(=O)NC4CC4)c(Cl)c3)c2c2c1OCCO2 [Example 22, 1-(2-chloro-4-((5-methoxy-2,3-dihydro-[1,4]dioxino[2,3-f]quinazolin-10-yl)oxy)phenyl)-3-cyclopropylurea] | – | < 50 nM | –
18 | COCCOc1cc2ncnc(Oc3ccc(NC(=O)Nc4cccc(OC)c4)cc3Cl)c2c2c1OCCO2 [Example 51, 1-(3-chloro-4-((5-(2-methoxyethoxy)-2,3-dihydro-[1,4]dioxino[2,3-f]quinazolin-10-yl)oxy)phenyl)-3-(3-methoxyphenyl)urea] | – | < 50 nM | –
19 | O=C(Nc1ccc(Oc2ncnc3cc(OCCCN4CCOCC4)c4c(c23)OCCO4)cc1Cl)NC1CC1 [Example 64] | > 1000 nM | < 50 nM | > 1000 nM
20 | COCCOc1cc2ncnc(Oc3ccc(NC(=O)Nc4cc(C(F)(F)F)ccc4F)c(F)c3)c2c2c1OCCO2 [Example 57, 1-(2-fluoro-4-((5-(2-methoxyethoxy)-2,3-dihydro-[1,4]dioxino[2,3-f]quinazolin-10-yl)oxy)phenyl)-3-(2-fluoro-5-(trifluoromethyl)phenyl)urea] | – | < 50 nM | –
